Tested on: Arabidopsis seedlings
Assay: Hormone-independent shoot regeneration of Arabidopsis seedlings after chemical induction of the transformed constructs
Format: in vivo, Arabidopsis thaliana
Experimental: For plant transformation, vector SHOOT REGENERATION was introduced into A. tumefaciens (strain C58C1.pMP90) by electroporation. Transformant A. tumefaciens were used to transform A. thaliana plants of the Col-0 ecotype by the floral dip method (Clough, 1998).
Seeds were surface sterilised by chlorin gas by the vapor sterilisation method (Lindsey, 2017). After sterilisation, the seeds were suspended in a 0.1% agarose solution, before being stratified at 4° C. in darkness for 48 hours. Subsequently, the seeds were plated on germination medium under sterile conditions. The seeds were plated on a fine nylon mesh (100 μm), which allowed for the contact with the medium without allowing seedlings to penetrate the mesh. The plates with the seedlings were sealed with surgical tape (3M, Micropore) to prevent desiccation. The plates were placed in upright position in a growth chamber (22° C., 120-150 μmol/m^2s with 16 h light/8 h dark photoperiodlight). The plates were left to grow in these circumstances for 5 days.
After 5 days of growth, the seedlings were transplanted under sterile conditions by transporting the mesh on which they were growing from the germination medium to the induction medium. The plates with the seedlings were sealed with surgical tape (3M, Micropore) to prevent desiccation. The plates were placed back in the growth chamber in upright position. The plates were left to grow in this condition for 14 days. Shoots started appearing in the second week of induction.
Plants transformed with the SHOOT REGENERATION vector (XVE-transactivated AmiRBR and AtWIND1; GVG-transactivated AtSHR, AtSCR, AtPLT1, AtPLT4, AtPLT5 and AtWOX5) were grown on medium containing 10 μM 17β-estradiol (EST: activation of XVE) and/or 10 μM dexamethasone (DEX: activation of GVG).
Plants transformed with the SHOOT REGENERATION-2 vector (XVE-transactivated AtWIND1; GVG-transactivated AtPLT1 and AtWOX5) were grown on medium containing 10 μM 17β-estradiol (EST: activation of XVE) and/or 10 μM dexamethasone (DEX: activation of GVG).

[1] = inducer on wild-type (non-transformed) seedlings, percentage of total number of seedlings tested

| SMILES | green callus (inducer on wild-type (non-transformed) seedlings, percentage of the numbers with callus formation) [%] | shoot regeneration (inducer on wild-type (non-transformed) seedlings, percentage of the numbers with green callus formation) [%] | callus [1] [%] | green callus [1] [%] | root growth arrest [1] [%] | shoot regeneration [1] [%] | root growth arrest, callus formation or shoot regeneration (roots of non-transformed Arabidopsis, induced with 10 μM, result in words) |
| --- | --- | --- | --- | --- | --- | --- | --- |
| C[C@@H]1C[C@H]2[C@@H]3CCC4=CC(=O)C=C[C@]4(C)[C@@]3(F)[C@@H](O)C[C@]2(C)[C@@]1(O)C(=O)CO [DEX, dexamethasone] | 0 | 0 | 0 | 0 | 0 | 0 |  |
| C[C@]12CC[C@@H]3c4ccc(O)cc4CC[C@H]3[C@@H]1CC[C@@H]2O [estradiol, 17β-estradiol] |  |  |  |  |  |  | never showed any root growth arrest, callus formation or shoot regeneration |
